Laboratory results from patent US10227331B2 (priority 2015, dated 2019).

Experiments:
[1] = test system: P. aeruginosa expressing IMP-1, efflux+ (MB9798); assay type: cell-based, Pseudomonas aeruginosa; details: for P. aeruginosa expressing IMP-1, efflux+ (MB9798) MITC95: imipenem at 2 μg/mL, in the presence of a class A, C, D serine β-lactamase inhibitor closely related to relebactam; for Efflux ratio: ratio MITC95 PA_9798/MITC95 PA_9799
From the text: (§1) The strain background is Pseudomonas aeruginosa PAO1.

[2] = test system: P. aeruginosa expressing IMP-1, efflux− (MB9799); experiment: Efflux: concentration of MBL inhibitor which restores susceptibility to imipenem; assay type: cell-based, Pseudomonas aeruginosa; details: imipenem at 2 μg/mL, in the presence of a class A, C, D serine β-lactamase inhibitor closely related to relebactam
From the text: as §1

[3] = test system: Escherichia coli expressing NDM-1 (CLB30005, CLB30016); assay type: cell-based; details: with imipenem 1 μg/ml, 95% inhibition of bacterial growth; for Escherichia coli MITC95: NDM-1 (CLB30016)
How it was run: (§2)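 Clinical strains grown overnight on blood agar, then diluted 1:100 in 1.1× CAMHB and exposed to test compound with imipenem at 1 μg/ml. Incubation was 22–24 h at 35° C; growth was read by absorbance to find the compound concentration restoring imipenem susceptibility.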

[4] = test system: Serratia marcescens expressing IMP-1 (CL5741); assay type: cell-based; details: with imipenem 1 μg/ml, 95% inhibition of bacterial growth; for Serratia marcescens MITC95: IMP-1 (CL5741)
How it was run: as §2

[5] = test system: Klebsiella pneumoniae expressing VIM-1 (IHMA599644); assay type: cell-based; details: with imipenem 1 μg/ml, 95% inhibition of bacterial growth; for Klebsiella pneumoniae MITC95: VIM-1 (IHMA599644)
How it was run: as §2

NDM-1 = NDM-1 (Klebsiella pneumoniae, UniProt C7C422); experiment: biochemical; assay type: biochemical; details: CCF2-FA substrate, 2 hours at 25° C; read-out: NDM-1 IC50
Sequence of NDM-1 (C7C422 whole entry, looked up, species assumed): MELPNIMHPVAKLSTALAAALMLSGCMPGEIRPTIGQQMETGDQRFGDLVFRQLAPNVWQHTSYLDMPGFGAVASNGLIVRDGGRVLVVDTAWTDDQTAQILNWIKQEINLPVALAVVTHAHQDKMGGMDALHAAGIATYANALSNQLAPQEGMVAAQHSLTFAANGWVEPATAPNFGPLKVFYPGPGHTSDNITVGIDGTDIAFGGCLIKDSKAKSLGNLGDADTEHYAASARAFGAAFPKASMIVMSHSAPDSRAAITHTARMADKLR
How it was run: (§3)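 Fluorescence assay of metallo-β-lactamase activity using CCF2-FA, a cephalosporin-linked 7-hydroxycoumarin–fluorescein substrate. Inhibitor, enzyme and substrate were incubated together for 2 hours at 25° C. IC50 came from a 4-parameter fit of inhibition versus inhibitor concentration.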

IMP-1 = IMP-1 (Serratia marcescens, UniProt P52699); experiment: biochemical; assay type: biochemical; details: CCF2-FA substrate, 2 hours at 25° C; read-out: IMP-1 IC50
Sequence of IMP-1 (P52699 whole entry, looked up, species assumed): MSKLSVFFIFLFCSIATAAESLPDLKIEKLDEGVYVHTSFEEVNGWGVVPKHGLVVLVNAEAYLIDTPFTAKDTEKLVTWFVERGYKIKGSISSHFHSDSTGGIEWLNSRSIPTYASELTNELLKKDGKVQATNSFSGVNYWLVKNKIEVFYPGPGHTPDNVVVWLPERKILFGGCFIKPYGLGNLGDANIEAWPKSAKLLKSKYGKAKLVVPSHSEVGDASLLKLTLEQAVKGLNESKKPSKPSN
How it was run: as §3

VIM-1 = VIM-1 (Pseudomonas aeruginosa (strain ATCC 15692 / DSM 22644 / CIP 104116 / JCM 14847 / LMG 12228 / 1C / PRS 101 / PAO1), UniProt A0A0F7KYQ8); experiment: biochemical; details: CCF2-FA substrate, 2 hours at 25° C
How it was run: as §3

| SMILES | P. aeruginosa expressing IMP-1, efflux+ (MB9798) MITC95 [1] [µM] | Efflux ratio [1] | P. aeruginosa expressing IMP-1, efflux− (MB9799) MITC95 [2] [µM] | Escherichia coli expressing NDM-1 (CLB30016) MITC95 [3] [µM] | Serratia marcescens expressing IMP-1 (CL5741) MITC95 [4] [µM] | Klebsiella pneumoniae expressing VIM-1 (IHMA599644) MITC95 [5] [µM] | IC50 (NDM-1) [nM] | IC50 (IMP-1) [nM] | IC50 (VIM-1) [nM] | Escherichia coli MITC95 [3] [µM] | Serratia marcescens MITC95 [4] [µM] | Klebsiella pneumoniae MITC95 [5] [µM] |
| --- | --- | --- | --- | --- | --- | --- | --- | --- | --- | --- | --- | --- |
| CC(=O)N1CC(S(=O)(=O)c2ccc(-c3cccc4nc(N)[nH]c34)c(-c3nn[nH]n3)c2S(N)(=O)=O)C1 [Example 54, 6-(1-acetylazetidin-3-ylsulfonyl)-3-(2-amino-3H-benzo[d]imidazol-4-yl)-2-(2H-tetrazol-5-yl)benzenesulfonamide] | 50 | 16.00 | 3.125 | 6.25 | 6.25 | 12.5 | 0.178 | 2.38 | 0.435 |  |  |  |
| NCCS(=O)(=O)c1ccc(-c2cccc(NC(=O)CN)c2NC(=O)CN)c(-c2nn[nH]n2)c1S(N)(=O)=O [Example 338, N,N′-(4′-((2-Aminoethyl)sulfonyl)-3′-sulfamoyl-2′-(2H-tetrazol-5-yl)-[1,1′-biphenyl]-2,3-diyl)bis(2-aminoacetamide)] | 25 | 4.00 | 6.25 |  |  |  | 20.4 | 74.9 | 15.1 | 1.563 | 3.125 | 6.25 |
| NC[C@@H](N)CS(=O)(=O)c1ccc(-c2cccc3[nH]c(N)nc23)c(-c2nn[nH]n2)c1S(N)(=O)=O [Example 360, (R)-3-(2-amino-1H-benzo[d]imidazol-4-yl)-6-((2,3-diaminopropyl)sulfonyl)-2-(2H-tetrazol-5-yl) benzenesulfonamide] | 0.8906 | 0.70 | 1.281 |  |  |  | 0.0654 | 0.544 | 0.287 | 0.25 | 1.391 | 1.781 |
| C[C@H](N)CS(=O)(=O)c1ccc(-c2cccc3[nH]c(N)nc23)c(-c2nn[nH]n2)c1S(N)(=O)=O [Example 92, 3-(2-amino-1H-benzo[d]imidazol-4-yl)-6-((S)-2-aminopropylsulfonyl)-2-(2H-tetrazol-5-yl)benzenesulfonamide] | 0.4777 | 0.81 | 0.5893 | 0.2969 | 0.6406 | 0.8542 | 0.141 | 0.612 | 0.223 |  |  |  |
| NS(=O)(=O)c1c(S(=O)(=O)C2CNC2)ccc(-c2cccc3ccnn23)c1-c1nnn[nH]1.O=C(O)C(F)(F)F [Example 102, 3-((4-(pyrazolo[1,5-a]pyridin-7-yl)-2-sulfamoyl-3-(1H-tetrazol-5-yl)phenyl)sulfonyl)azetidin-1-ium 2,2,2-trifluoroacetate] | 3.125 | 2.00 | 1.563 | 3.125 | 3.125 | 3.125 | 0.407 | 0.909 | 0.457 |  |  |  |
| NS(=O)(=O)c1c(SC2CNC2)ccc(-c2cccc3nccn23)c1-c1nnn[nH]1 [Example 63, 6-(Azetidin-3-ylthio)-3-(imidazo[1,2-a]pyridin-5-yl)-2-(1H-tetrazol-5-yl)benzenesulfonamide] | 50 | 28.07 | 1.781 | 1 | 3.125 | 3.125 | 5.91 | 125 | 30.5 |  |  |  |
| Nc1nc2cc(-c3ccc(S(=O)(=O)C4CNC4)c(S(N)(=O)=O)c3-c3nn[nH]n3)ccc2[nH]1 [Example 40, 3-(2-amino-1H-benzo[d]imidazol-5-yl)-6-(azetidin-3-ylsulfonyl)-2-(2H-tetrazol-5-yl)benzenesulfonamide] | 3.125 | 5.61 | 0.5573 | 0.4453 | 0.5573 | 1.375 | 0.409 | 1.99 | 0.348 |  |  |  |
| Cn1c(N)nc2c(-c3ccc(S(=O)(=O)C[C@H](O)CN)c(S(N)(=O)=O)c3-c3nn[nH]n3)cccc21 [Example 362, (R)-3-(2-amino-1-methyl-1H-benzo[d]imidazol-4-yl)-6-((3-amino-2-hydroxypropyl)sulfonyl)-2-(2H-tetrazol-5-yl) benzenesulfonamide] | 0.7813 | 1.00 | 0.7813 |  |  |  | 0.295 | 0.408 | 0.605 | 0.3906 | 0.7813 | 1.563 |
| NS(=O)(=O)c1c(S(=O)(=O)CC2CNC2)ccc([C@H]2CC[C@H](N)CC2)c1-c1nnn[nH]1 [Example 204, 3-((1r,4r)-4-aminocyclohexyl)-6-((azetidin-3-ylmethyl)sulfonyl)-2-(1H-tetrazol-5-yl)benzenesulfonamide] | 1.563 | 2.00 | 0.7813 | 0.7813 | 1.563 | 1.563 | 16.2 | 37.5 | 1.04 |  |  |  |
| NCCS(=O)(=O)c1ccc(-c2ccc(-c3nn[nH]n3)cc2)c(-c2nnn[nH]2)c1S(N)(=O)=O.O=C(O)C(F)(F)F [Example 151, 2-((3-sulfamoyl-2-(1H-tetrazol-5-yl)-4′-(2H-tetrazol-5-yl)-[1,1′-biphenyl]-4-yl)sulfonyl)ethanaminium 2,2,2-trifluoroacetate] | 12.5 | 4.00 | 3.125 | 12.5 | 12.5 | 25 | 0.271 | 0.191 | 0.544 |  |  |  |
| NS(=O)(=O)c1c(S(=O)(=O)C2CNC2)ccc(-c2cccn3ccnc23)c1-c1nnn[nH]1 [Example 58, 6-(Azetidin-3-ylsulfonyl)-3-(imidazo[1,2-a]pyridin-8-yl)-2-(1H-tetrazol-5-yl)benzenesulfonamide] | 1.563 | 1.00 | 1.563 | 0.7813 | 1.563 | 3.125 | 0.378 | 0.597 | 0.342 |  |  |  |
